{"source": "patent US9167821B2", "about": "(priority 2009, dated 2015)", "key": {"[1]": {"tested_on": "Phytophthora infestans", "test": "whole plant or invertebrate", "format": "in vivo", "details": "for efficacy: tomato plants, protective spray, 10 ppm active ingredient, evaluation 3 days after inoculation, 0% = control, 100% = no infection"}, "[2]": {"tested_on": "Plasmopara viticola", "test": "Plasmopara test (grapevine)/protective", "format": "in vivo", "details": "grapevine plants, protective spray, 10 ppm active ingredient, evaluation 6 days after inoculation, 0% = control, 100% = no infection", "protocol": "Plasmopara Test (Grapevine)/Protective\nTo prepare an appropriate active ingredient preparation, 1 part by weight of active ingredient is mixed with the stated amounts of solvent and emulsifier, and the concentrate is diluted with water to the desired concentration.\nTo test for protective efficacy, young plants are sprayed with the active ingredient preparation at the stated application rate. After the spray coating has dried on, the plants are inoculated with an aqueous spore suspension of Plasmopara viticola and then remain in an incubation cabinet at about 20° C. and 100% relative atmospheric humidity for 1 day. The plants are then placed in a greenhouse at approx. 21° C. and approx. 90% air humidity for 4 days. The plants are then moistened and placed in an incubation cabinet for 1 day.\nEvaluation follows 6 days after the inoculation."}, "[3]": {"tested_on": "Peronospora brassicae", "test": "Peronospora test (rapeseed)/seed treatment", "format": "in vivo", "details": "50 g/dt active ingredient, greenhouse, infected leaf area per plant, 0% = control, 100% = no infestation", "protocol": "Peronospora Test (Rapeseed)/Seed Treatment\nThe test was carried out under greenhouse conditions.\nTo produce an active ingredient preparation, the active ingredient was dissolved in N-methyl-2-pyrrolidone and the concentrate was diluted with water to the desired concentration. The rapeseeds treated with this solution were sown in 6*6 cm pots which had been filled to a height of 4 cm with a 1:1 mixture of steam-treated soil and sand. Then the plants were cultivated at 10° C.\nAfter 14 days, the plants were inoculated with an aqueous spore suspension of Peronospora brassicae. Subsequently, the plants were placed in a greenhouse at approx. 15° C. and 100% air humidity for 7 days.\nThe evaluation was effected by assessing the infected leaf area per plant. 0% means an efficiency which corresponds to that of the control, while an efficiency of 100% means that no infestation is observed."}, "[4]": {"test": "physchem", "details": "pH 2.7, logp [b]"}, "[5]": {"details": "for logp [b]: pH 2.7; for logp [c]: pH 7.8"}}}
{"smiles": "CC(=O)c1ccccc1C1CC(c2csc(C3CCN(C(=O)Cn4nc(C(F)F)cc4C(F)F)CC3)n2)=NO1", "note": "(centres unmarked) [I-7, 1-(4-{4-[5-(2-Acetylphenyl)-4,5-dihydro-1,2-oxazol-3-yl]-1,3-thiazol-2-yl}piperidin-1-yl)-2-[3,5-bis(difluoromethyl)-1H-pyrazol-1-yl]ethanone]", "values": [{"measurement": "pest or weed control at 10 ppm", "setting": "[1]; Phytophthora infestans, in Solanum lycopersicum, 72 h, read-out: efficacy", "value": 97, "unit": "%"}, {"measurement": "pest or weed control at 10 ppm", "setting": "[2]; Plasmopara viticola, 144 h, read-out: efficacy", "value": 100, "unit": "%"}, {"measurement": "efficiency", "setting": "[3]", "value": 100, "unit": "%"}, {"measurement": "chromatographic logP", "setting": "[4]", "value": 3.08}]}
{"smiles": "O=C(Cn1nc(C(F)F)cc1C(F)F)N1CCC(F)(c2nc(C3=NOC(c4c(F)cccc4F)C3)cs2)CC1", "note": "(racemic) [I-6]", "values": [{"measurement": "efficacy", "setting": "[1]", "value": 94, "unit": "%"}, {"measurement": "efficacy", "setting": "[2]", "value": 100, "unit": "%"}, {"measurement": "efficiency", "setting": "[3]", "value": 100, "unit": "%"}, {"measurement": "logp [b]", "setting": "[5]", "value": "3.43^[b];"}, {"measurement": "logp [c]", "setting": "[5]", "value": "3.34^[c]"}]}
{"smiles": "O=C(Cn1nc(C(F)F)cc1C(F)F)N1CCC(c2nc(C3=NOC(c4ccccc4)C3)cs2)CC1", "note": "(racemic) [I-1]", "values": [{"measurement": "efficacy", "setting": "[1]", "value": 95, "unit": "%"}, {"measurement": "efficacy", "setting": "[2]", "value": 100, "unit": "%"}, {"measurement": "efficiency", "setting": "[3]", "value": 100, "unit": "%"}, {"measurement": "logp [b]", "setting": "[5]", "value": "3.17^[b];"}, {"measurement": "logp [c]", "setting": "[5]", "value": "3.11^[c]"}]}
